Laboratory results taken from patent US8008306B2, “Quinoline compounds” (Kowa Company, Ltd., priority 2008, dated 2011).

Experiments:
[1] = target: T1, LXRβ/GAL4 hybrid (LBD of human LXRβ), compared with LXRα/GAL4 (Homo sapiens, UniProt P55055); assay: Transactivation assay (GAL4-responsive luciferase reporter); assay type: cell-based; conditions: CHOK-1 cells stably expressing LXRα/GAL4 or LXRβ/GAL4 and pG5luc; 0.01-10 μM, 24 hours; % eff relative to T0901317 at 10 μM = 100; data in FIGS. only
T1 construct: expressed in transfected cells; host or cells: CHOK-1 cells stably expressing the hybrid and pG5luc
T1 sequence (P55055 222-460 limits assumed): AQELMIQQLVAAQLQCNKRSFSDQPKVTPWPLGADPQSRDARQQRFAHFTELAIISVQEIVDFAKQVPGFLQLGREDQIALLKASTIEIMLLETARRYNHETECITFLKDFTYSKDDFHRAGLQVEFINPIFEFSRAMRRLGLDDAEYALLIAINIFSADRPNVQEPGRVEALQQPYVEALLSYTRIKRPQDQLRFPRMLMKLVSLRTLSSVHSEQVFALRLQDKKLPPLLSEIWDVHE
Text: The ligand-binding domain (LBD) of a human LXRα and LXRβ cDNA was inserted adjacent to an yeast GAL4-transcription factor DNA-binding domain (DBD) of a mammal expression vector pBIND (Promega) to prepare an expression construct, thereby to produce pBIND-LXRα/GAL4 and pBIND-LXRβ/GAL4, respectively. PG5luc, a GAL4-responsive reporter construct, is a known vector that is available from Promega, and contains 5 copies of GAL4-response element located adjacent to the promoter as well as a luciferase reporter gene.
An LXRα/GAL4 or LXRβ/GAL4 hybrid and GAL4-responsive reporter vector pG5luc-stable-expression CHOK-1 cells were seeded under 5% CO2 wet atmosphere at 37° C., at 20,000 cells/well on a 96-well plate containing HAM-F12 medium containing 10% […] bovine fetal serum, 100 units/ml of penicillin G, and 100 μg/ml of streptomycin sulfate. […] By using Bright-Glo (Promega) as a luciferase assay substrate, and measuring the luminescence intensity with luminometer LB960 (Berthold Technologies), the effect of the test compound on the activation of luciferase transcription via the LXRα- or LXRβ-LBD was measured. At the same time, T0901317 (the compound of Example 12 of WO2000/54759) and WAY-254011 (compound 4 of Hu et al., Bioorg. Med. Chem. Lett., 18, pp. 54-59, 2008) were assessed as comparative compounds. […]

[2] = target: T2, LXRβ (versus LXRα) (Homo sapiens, UniProt P55055); conditions: from Hu et al., Bioorg. Med. Chem. Lett., 18, pp. 54-59, 2008; cited from earlier work
T2 sequence (P55055 1-460): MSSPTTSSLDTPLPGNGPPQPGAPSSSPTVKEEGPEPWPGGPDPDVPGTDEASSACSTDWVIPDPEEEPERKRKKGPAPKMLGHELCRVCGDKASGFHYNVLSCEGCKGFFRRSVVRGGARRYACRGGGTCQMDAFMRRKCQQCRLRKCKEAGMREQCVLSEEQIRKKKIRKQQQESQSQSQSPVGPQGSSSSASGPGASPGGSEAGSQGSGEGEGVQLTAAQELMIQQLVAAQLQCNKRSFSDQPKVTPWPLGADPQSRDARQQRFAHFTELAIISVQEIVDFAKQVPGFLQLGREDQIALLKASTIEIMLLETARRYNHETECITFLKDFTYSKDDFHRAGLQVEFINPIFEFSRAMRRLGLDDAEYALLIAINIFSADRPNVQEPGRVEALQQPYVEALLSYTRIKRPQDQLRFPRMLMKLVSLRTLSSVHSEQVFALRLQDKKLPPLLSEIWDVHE

O=C(O)Cc1ccc(COc2cccc(-c3c(Cc4ccccc4)cnc4c(C(F)(F)F)cccc34)c2)cc1 [WAY-254011]
LXRβ-selective agonist effect (luciferase activity via LXRα- or LXRβ-LBD) [1]: not found to have an LXRβ-selective agonist effect | LXRβ-selective binding affinity (α/β ratio) [2]: 1 to 5
